Patent US20250057790A1, “AN INJECTABLE PHARMACEUTICAL COMPOSITION FOR THE TREATMENT OF RESPIRATORY DISEASES IN ANIMALS” (priority 2021, published 2025)

What was measured:
[1] = tested on: microbes that cause respiratory disease in animals; assay: Activity against the microbes that cause respiratory disease in animals (statement); type: cell-based
[2] = Injection site reactions in cattle; type: in vivo; settings: injectable pharmaceutical compositions
Description: Cattle injected with injectable pharmaceutical compositions containing Compound (A) were evaluated for reactions at the injection site. These injection site reactions were compared to the injection site reactions of cattle injected with injectable pharmaceutical compositions containing Compounds (B) and (C). The compounds were formulated as aqueous solution injectable pharmaceutical compositions or as suspension injectable pharmaceutical compositions as indicated below. These formulations were prepared as described in Examples 1 and 2. Compound (A) was formulated as both an aqueous solution using the free base form of the compound and as a suspense using the dihydrochloride salt of the compound. The composition of the aqueous solution injectable pharmaceutical composition was 15% w/v of Compound A, 15% w/v Poloxamer […], 6% w/v Benzyl Alcohol, 7% w/v Citric Acid, and QS Water. The composition of the suspension injectable pharmaceutical composition was 15% w/v Compound A (17.5% w/v HCl salt of Compound A), 0.1% w/v Kolliphor HS 15 and QS Miglyol 812. Compound A was administered to the animals in a dose of 10 mg/kilogram of body weight. Compound (B) was formulated as both an aqueous solution using the free base form of the compound and as a suspense using the dihydrochloride salt of the compound. The composition of the aqueous solution injectable pharmaceutical composition was 15% w/v of Compound B, 15% w/v Poloxamer […], 6% w/v Benzyl Alcohol, 7% w/v Citric Acid, and QS Water. The composition of the suspension injectable pharmaceutical composition was 15% w/v Compound B (17.5% w/v HCl salt of Compound B), 0.1% w/v Kolliphor HS 15 and QS Miglyol 812. Compound A was administered to the animals in a dose of 10 mg/kilogram of body weight. Compound (C) was formulated as both an aqueous solution using the free base form of the compound. The composition of the aqueous solution injectable pharmaceutical composition was 10% w/v of Compound C, 15% w/v Poloxamer […], 6% w/v Benzyl Alcohol, 7% w/v Citric Acid, and QS Water. Compound A was administered to the animals in a dose of 10 mg/kilogram of body weight. Injection sites were examined clinically by a trained person, Size of the swelling is measured with a ruler to the closest 0.5 cm horizontally, vertical and depth. These three measured values were multiplied to an estimation of the volume of the square box surrounding the observed swelling.

| SMILES | Activity against the microbes that cause respiratory disease in animals [1] | Injection site reactions, overall assessment [2] | Injection site reactions, overall assessment ([2]; listed as Compound (B)) | Injection site reactions, overall assessment ([2]; listed as Compound (C)) |
| --- | --- | --- | --- | --- |
| CC(C)(N)[C@H](NC(=O)c1ccc(C#Cc2ccc(CNC3CC3)cc2)cc1)C(=O)NO [Compound B] | active against the microbes that cause respiratory disease in animals | not resolved during the duration of the study | unacceptable injection site reactions | – |
| CC(C)(N)[C@H](NC(=O)c1ccc(C#Cc2ccc(CNCC(F)(F)F)cc2)cc1)C(=O)NO [Compound C] | active against the microbes that cause respiratory disease in animals | not resolved during the duration of the study | – | unacceptable injection site reactions |
